# Test results taken from patent publication US7858776B2, “Lactams and uses thereof” (AstraZeneca AB, priority 2002, dated 2010).
# Counter-ions that a name gives are not always drawn.
row,Compound,melting point
1,"C[C@H](NC(=O)Cc1cc(F)cc(F)c1)C(=O)N[C@@H]1C(=O)Nc2ccccc2S[C@@H]1c1cccs1 [Example 99, N^2-[(3,5-Difluorophenyl)acetyl]-N^1-[(2S,3R)-4-oxo-2-(2-thienyl)-2,3,4,5-tetrahydro-1,5-benzothiazepin-3-yl]-L-alaninamide]",117 to 119 °C
2,"C[C@H](NC(=O)Cc1cc(F)cc(F)c1)C(=O)N[C@@H]1C(=O)Nc2ccccc2S[C@@H]1c1ccco1 [Example 101, N^2-[(3,5-Difluorophenyl)acetyl]-N^1-[(2S,3R)-2-(2-furyl)-4-oxo-2,3,4,5-tetrahydro-1,5-benzothiazepin-3-yl]-L-alaninamide]",125 to 130 °C
3,"C[C@H](NC(=O)Cc1cc(F)cc(F)c1)C(=O)N[C@@H]1C(=O)Nc2ccccc2S[C@@H]1c1cc(Br)cs1 [Example 104, N^1-[(2S,3R)-2-(4-Bromo-2-thienyl)-4-oxo-2,3,4,5-tetrahydro-1,5-benzothiazepin-3-yl]-N^2-[(3,5-difluorophenyl)acetyl]-L-alaninamide]",145 to 155 °C
4,"N[C@@H](Cc1ccccc1)C(=O)N(C(=O)Cc1cc(F)cc(F)c1)[C@@H]1C(=O)Nc2ccccc2S[C@@H]1c1ccccc1 [Example 105, N-[(3,5-Difluorophenyl)acetyl]-N-[(2R,3R)-4-oxo-2-phenyl-2,3,4,5-tetrahydro-1,5-benzothiazepin-3-yl]-L-phenylalaninamide]",115 to 120 °C
5,"O=C(Cc1cc(F)cc(F)c1)NCC(=O)N[C@@H]1C(=O)Nc2ccccc2S[C@@H]1c1ccccc1 [Example 106, N^2-[(3,5-Difluorophenyl)acetyl]-N^1-[(2R,3R)-4-oxo-2-phenyl-2,3,4,5-tetrahydro-1,5-benzothiazepin-3-yl]glycinamide]",125 to 130 °C
6,"CSCC[C@H](NC(=O)Cc1cc(F)cc(F)c1)C(=O)N[C@@H]1C(=O)Nc2ccccc2S[C@@H]1c1ccccc1 [Example 109, N^2-[(3,5-Difluorophenyl)acetyl]N^1-[(2R,3R)-4-oxo-2-phenyl-2,3,4,5-tetrahydro-1,5-benzothiazepin-3-yl]-L-methioninamide]",85 to 90 °C
7,"O=C(Cc1cc(F)cc(F)c1)N[C@@H](Cc1cc2ccccc2[nH]1)C(=O)N[C@@H]1C(=O)Nc2ccccc2S[C@@H]1c1ccccc1 [Example 110, N^2-[(3,5-Difluorophenyl)acetyl]-3-(1H-indol-2-yl)-N^1-[(2R,3R)-4-oxo-2-phenyl-2,3,4,5-tetrahydro-1,5-benzothiazepin-3-yl]-L-alaninamide]",85 to 90 °C

# The remaining lines, values ahead:
row,melting point,Compound
1,184 to 195 °C,"C[C@H](NCCc1ccccc1)C(=O)N[C@@H]1C(=O)Nc2ccccc2S[C@@H]1c1ccccc1 (as salt: hydrochloride) [Example 98, N^1-[(2R,3R)-4-Oxo-2-phenyl-2,3,4,5-tetrahydro-1,5-benzothiazepin-3-yl]-N^2-(2-Phenylethyl)-L-alaninamide]"
2,128 to 133 °C,"C[C@H](NC(=O)Cc1cc(F)cc(F)c1)C(=O)N[C@@H]1C(=O)NCCS[C@@H]1c1ccccc1 [Example 7, N^2-[(3,5-Difluorophenyl)acetyl]-N^1-[(6R,7R)-5-oxo-7-phenyl-1,4-thiazepan-6-yl]-L-alaninamide]"
3,93 to 99 °C,"CC(C)C[C@H](O)C(=O)N[C@@H](C)C(=O)N[C@@H]1C(=O)NCCS[C@@H]1c1ccccc1 [Example 93, N^2-[(2S)-2-Hydroxy-4-methyl-1-oxopentyl]-N^1-[(6R,7R)-5-oxo-7-phenyl-1,4-thiazepan-6-yl]-L-alaninamide]"
4,114 to 124 °C,"C[C@H](NC(=O)Cc1ccccc1)C(=O)N[C@@H]1C(=O)Nc2ccccc2S[C@@H]1c1ccccc1 [Example 97, N^1-[(2R,3R)-4-Oxo-2-phenyl-2,3,4,5-tetrahydro-1,5-benzothiazepin-3-yl]-N^2-(phenylacetyl)-L-alaninamide]"
5,115 to 120 °C,"C[C@H](NC(=O)Cc1cc(F)cc(F)c1)C(=O)N[C@@H]1C(=O)Nc2ccccc2S[C@H]1c1ccoc1 [Example 102, N^2-[(3,5-Difluorophenyl)acetyl]-N^1-[(2S,3R)-2-(3-furyl)-4-oxo-2,3,4,5-tetrahydro-1,5-benzothiazepin-3-yl]-L-alaninamide]"
6,110 to 115 °C,"CC(C)[C@H](NC(=O)Cc1cc(F)cc(F)c1)C(=O)N[C@@H]1C(=O)Nc2ccccc2S[C@@H]1c1ccccc1 [Example 107, N^2-[(3,5-Difluorophenyl)acetyl]-N^1-[(2R,3R)-4-oxo-2-phenyl-2,3,4,5-tetrahydro-1,5-benzothiazepin-3-yl]-L-valinamide]"
7,122 to 136 °C,"C[C@H](NC(=O)Cc1ccccc1)C(=O)N[C@@H]1C(=O)Nc2ccccc2O[C@@H]1c1ccccc1 [Example 113, N^1-[(2R,3S)-4-Oxo-2-phenyl-2,3,4,5-tetrahydro-1,5-benzoxazepin-3-yl]-N^2-(phenylacetyl)-L-alaninamide]"
8,115 to 135 °C,"C[C@H](NC(=O)Cc1ccccc1F)C(=O)N[C@@H]1C(=O)Nc2ccccc2O[C@@H]1c1ccccc1 [Example 114, N^2-[(2-Fluorophenyl)acetyl]-N^1-[(2R,3S)-4-oxo-2-phenyl-2,3,4,5-tetrahydro-1,5-benzoxazepin-3-yl]-L-alaninamide]"
9,130 to 140 °C,"C[C@H](NC(=O)Cc1cccc(F)c1)C(=O)N[C@@H]1C(=O)Nc2ccccc2O[C@@H]1c1ccccc1 [Example 115, N^2-[(3-Fluorophenyl)acetyl]-N^1-[(2R,3S)-4-oxo-2-phenyl-2,3,4,5-tetrahydro-1,5-benzoxazepin-3-yl]-L-alaninamide]"
10,130 to 140 °C,"C[C@H](NC(=O)Cc1ccc(F)cc1)C(=O)N[C@@H]1C(=O)Nc2ccccc2O[C@@H]1c1ccccc1 [Example 116, N^2-[(4-Fluorophenyl)acetyl]-N^1-[(2R,3S)-4-oxo-2-phenyl-2,3,4,5-tetrahydro-1,5-benzoxazepin-3-yl]-L-alaninamide]"
